From patent US9908854B2, “Process for synthesizing ergothioneine and related compounds” (University of Cape Town, priority 2014, dated 2018)
“And” between values parts separate entries of the source, which are not always exact repeats. Identical values can stand only once. “Also recorded” adds a separate entry of the source.

Tests used:
[1] = tested on: crude M. smegmatis enzymes (ESH pathway, EgtE); assay: Biotransformation of substrates to ergothioneine using crude M. smegmatis enzymes preparation (LC/MS); format: biochemical, Mycobacterium smegmatis; settings: for concentration of ESH produced: 50 mM substrate, crude M. smegmatis cell free extract, 37° C., pH=7.4, 1 day, LCMS, control (endogenous ESH) 5.70 ng/ml
Method: FIG. 1 In vitro reconstitution of ESH; 100 μl reactions containing 20 mM Tris HCl pH=7.4, 20 mM NaCl, 0.2 Mm FeSO4.7H2O, 0.5 mM mercaptoethanol, 83 μl of crude M. smeg enzymes and 50 mM of either (a) S-(β-amino-β-carboxyethyl)ergothioneine sulfide (15); (b) S-(β-amino-β-carboxyethyl)ergothioneine sulfoxide (II) and (c) control. The crude enzyme reactions were incubated for 1 day at 37° C. followed by analysis by LC/MS.
The enzymatic and non-enzymatic PLP mediated synthesis of ESH from the synthetic sulfoxide (II) was compared. To this end, crude M. smegmatis cell free extracts were isolated from cultures grown and harvested at the late exponential phase, characterised by high enzymatic activity.^10
The crude enzymatic transformation of the ESH biosynthetic pathway precursors, including sulfide and sulfoxide variants were evaluated by the concomitant production of ESH in excess of basal levels as determined by LCMS. ESH precursor metabolites (β-amino-β-carboxyethyl)ergothioneine sulfide (15) and (β-amino-β-carboxyethyl)ergothioneine sulfoxide (II) were incubated with the crude cell free extract at 37° C., pH=7.4 for 1 day, and analyzed by LCMS.
The control reaction containing only the crude M. smegmatis cell free extract was also treated under the same conditions as the metabolites. The concentration of ESH thus obtained was 5.70 (±0.30) ng/ml, which was equated to that of endogenous ESH. This concentration was above the limit of detection (0.78 ng/ml), thus any increase in the concentration of ESH in the experiment above 1 ng/ml is considered significant enough to be ascribed to basal levels or biotransformation of the respective substrates by the crude endogenous enzymes of the ESH pathway. […]

[2] = Non enzymatic cleavage of C-S bond catalysed by PLP (LC/MS); settings: 50 mM substrate plus 50 mM PLP, 20 mM Tris HCl pH=7.4, 37° C., 24 h
Method: FIG. 2 Non enzymatic production of ESH catalysed by PLP. TIC extracted for ESH and PLP using S-(β-amino-β-carboxyethyl)ergothioneine sulfide (15), S-(β-amino-β-carboxyethyl)ergothioneine sulfoxide (II) and S-(β-amino-β-carboxyethyl)ergothioneine sulfone (III).
FIG. 3 Non enzymatic production of ESH graph contain; 100 μl reactions containing 20 mM Tris HCl pH=7.4, 20 mM NaCl, 50 mM of either (1) sulfide (15) plus PLP, (2) sulfoxide (II) plus PLP, (3) sulfone (III) plus PLP respectively. Reaction time: 24 h.
Three sets of 100 μl reactions (1-3) containing 20 mM Tris HCl pH=7.4, and 50 mM of either (1) S-(β-amino-β-carboxyethyl)ergothioneine sulfide (15) and PLP (2) S-(β-amino-β-carboxyethyl)ergothioneine sulfoxide (II) and PLP or (3) S-(β-amino-βcarboxyethyl)ergothioneine sulfone (III) and PLP. The non-enzymatic reactions were incubated for 1 day at 37° C., followed by lyophilisation and subsequent reconstitution in LC buffer before analysis by LC/MS (FIGS. 2 and 3).

[3] = tested on: crude cell free extracts of Neurospora Crassa; settings: synthetic sulfoxide of the 1974 prior synthesis; cited from earlier work

| concentration of ESH produced [1] [ng/mL] | stability to Egt E enzyme mediated C-S cleavage [1] | SMILES | formation of ESH (non-enzymatic, PLP) [2] | cleavage to ESH by crude cell free extracts [3] |
| --- | --- | --- | --- | --- |
| 19.2 | – | C[N+](C)(C)[C@@H](Cc1c[nH]c(SC[C@H](N)C(=O)O)n1)C(=O)O [compound 15, S-(β-amino-β-carboxyethyl)ergothioneine sulfide] | 96.3 ng/mL and 96.34 ng/mL | – |
| 22.6 | – | C[N+](C)(C)[C@@H](Cc1c[nH]c([S+]([O-])C[C@H](N)C(=O)O)n1)C(=O)O (stereo partly shown) [II] | no ESH at all; also recorded: did not produce ESH at all | extensively cleaved to ESH |
| – | stable | C[N+](C)(C)[C@@H](Cc1c[nH]c(S(=O)(=O)C[C@H](N)C(=O)O)n1)C(=O)O [III] | did not produce ESH at all | – |
